Test results from PMC9469100, “Turning Nonselective Inhibitors of Type I Protein Arginine Methyltransferases into Potent and Selective Inhibitors of Protein Arginine Methyltransferase 4 through a Deconstruction–Reconstruction and Fragment-Growing Approach” (Journal of Medicinal Chemistry, 2022).
Where two headings read alike, the source gives them in different places.

Legend:
[1] = Parallel artificial membrane permeability assay (PAMPA); format: in vitro ADME; conditions: phosphate buffer pH 7.4, donor 0.2 mM, 24 h at room temperature
Procedure: A donor solution (0.2 mM) was prepared by diluting 20 mM dimethyl sulfoxide (DMSO) compound stock solution using phosphate buffer (pH 7.4, 0.01 M). Filters were coated with 5 μL of a 1% (w/v) dodecane solution of L-α-phosphatidylcholine. Donor solution (150 μL) was added to each well of the filter plate. To each well of the acceptor plate, 300 μL of solution (5% DMSO in phosphate buffer) was added. […] The sandwich was incubated for 24 h at room temperature under gentle shaking. After the incubation time, the sandwich plates were separated, and 250 μL of the acceptor plate was transferred to a UV quartz microtiter plate and measured by UV spectroscopy, using a Multiskan GO microplate spectrophotometer (Thermo Fisher Scientific) at 250–500 nm at a step of 5 nm. Reference solutions (250 μL) were prepared diluting the sample stock solutions to the same concentration as that with no membrane barrier.

PRMT6 = PRMT6 (Homo sapiens, UniProt Q96LA8); assay: Radioisotope-based filter-binding (HotSpot) assay, PRMT6; conditions: radioisotope-based filter assay
Procedure: (§1) Then, ^3H-SAM (final concentration 1 μM) was delivered into the reaction mixture to initiate the reaction. After incubation for 60 min at 30 °C, the reaction mixture was delivered to filter paper for detection (as assessed by scintillation). Data were analyzed using Excel and GraphPad Prism 6.0 software (GraphPad Software Inc., San Diego, CA) for IC50 curve fits using sigmoidal dose vs response-variable slope (four parameters) equations.

PRMT5/MEP50 complex = PRMT5/MEP50 complex (Homo sapiens, UniProt O14744); assay: Radioisotope-based filter-binding (HotSpot) assay, PRMT5; conditions: read-out: IC50 (μM) PRMT5; radioisotope-based filter assay; 5 μM histone H2A; 1 μM 3H-SAM
Procedure: as §1

PRMT3 = PRMT3 (Homo sapiens, UniProt O60678); assay: Radioisotope-based filter-binding (HotSpot) assay, PRMT3; conditions: radioisotope-based filter assay
Procedure: as §1

ΔN(1–60)-PRMT8 = ΔN(1–60)-PRMT8 (Homo sapiens, UniProt Q9NR22); assay: Radioisotope-based filter-binding (HotSpot) assay, PRMT8
Procedure: as §1

[2] = biological target: T1, human PRMT4 (full length) (Homo sapiens, UniProt Q86X55); assay: SPR binding to immobilized PRMT4; conditions: for τR: in vitro residence time, τ = 1/koff
T1 construct: Full-length recombinant PRMT4 (Active motif, # 81107); purchased Active motif # 81107
T1 sequence (Q86X55 1-608): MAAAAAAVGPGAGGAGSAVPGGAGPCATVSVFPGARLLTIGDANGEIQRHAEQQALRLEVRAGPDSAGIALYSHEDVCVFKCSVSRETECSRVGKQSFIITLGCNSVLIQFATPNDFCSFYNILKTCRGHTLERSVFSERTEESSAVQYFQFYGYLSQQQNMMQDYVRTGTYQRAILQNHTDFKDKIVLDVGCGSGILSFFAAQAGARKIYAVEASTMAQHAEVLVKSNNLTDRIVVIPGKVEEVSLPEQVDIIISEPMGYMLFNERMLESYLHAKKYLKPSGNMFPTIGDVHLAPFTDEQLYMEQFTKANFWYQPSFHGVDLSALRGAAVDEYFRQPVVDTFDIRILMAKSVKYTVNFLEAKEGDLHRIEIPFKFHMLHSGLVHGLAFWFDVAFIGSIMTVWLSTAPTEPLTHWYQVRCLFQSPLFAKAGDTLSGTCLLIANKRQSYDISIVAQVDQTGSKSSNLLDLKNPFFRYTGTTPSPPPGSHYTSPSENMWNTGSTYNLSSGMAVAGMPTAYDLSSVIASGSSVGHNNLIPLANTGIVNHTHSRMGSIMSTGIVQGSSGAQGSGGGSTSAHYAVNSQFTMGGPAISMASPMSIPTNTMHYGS
In short: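 Full-length human PRMT4 amine-coupled to a Biacore chip; compounds injected in 12 dilutions from 640 to 10 nM in PBS pH 7.4 with 0.05% Tween-20 at 25 °C. Association and dissociation each monitored 90 s at 30 μL/min; KD, kon and koff from 1:1 Langmuir global fit.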

PRMT4 = biological target: T2, PRMT4 (Homo sapiens, UniProt Q86X55); assay: Radioisotope-based filter-binding (HotSpot) assay, PRMT4; conditions: for LE: ligand efficiency for PRMT4 calculated from IC50 as a surrogate for KD; for selectivity index for PRMT4 vs other PRMTs: PRMT1: ratio IC50 PRMT1 / IC50 PRMT4, rounded to nearest integer; for selectivity index for PRMT4 vs other PRMTs: PRMT3: ratio IC50 PRMT3 / IC50 PRMT4; for selectivity index for PRMT4 vs other PRMTs: PRMT5: ratio IC50 PRMT5 / IC50 PRMT4; for selectivity index for PRMT4 vs other PRMTs: PRMT6: ratio IC50 PRMT6 / IC50 PRMT4; for selectivity index for PRMT4 vs other PRMTs: PRMT7: ratio IC50 PRMT7 / IC50 PRMT4; for selectivity index for PRMT4 vs other PRMTs: PRMT8: ratio IC50 PRMT8 / IC50 PRMT4; for IC50: radioisotope-based filter assay; for SI PRMT1 (Figure 5 heatmap): selectivity index for PRMT4 over PRMT1; for SI PRMT3 (Figure 5 heatmap): selectivity index for PRMT4 over PRMT3; for SI PRMT6 (Figure 5 heatmap): selectivity index for PRMT4 over PRMT6; for SI PRMT7 (Figure 5 heatmap): selectivity index for PRMT4 over PRMT7; for SI PRMT8 (Figure 5 heatmap): selectivity index for PRMT4 over PRMT8
T2 sequence (Q86X55 2-608): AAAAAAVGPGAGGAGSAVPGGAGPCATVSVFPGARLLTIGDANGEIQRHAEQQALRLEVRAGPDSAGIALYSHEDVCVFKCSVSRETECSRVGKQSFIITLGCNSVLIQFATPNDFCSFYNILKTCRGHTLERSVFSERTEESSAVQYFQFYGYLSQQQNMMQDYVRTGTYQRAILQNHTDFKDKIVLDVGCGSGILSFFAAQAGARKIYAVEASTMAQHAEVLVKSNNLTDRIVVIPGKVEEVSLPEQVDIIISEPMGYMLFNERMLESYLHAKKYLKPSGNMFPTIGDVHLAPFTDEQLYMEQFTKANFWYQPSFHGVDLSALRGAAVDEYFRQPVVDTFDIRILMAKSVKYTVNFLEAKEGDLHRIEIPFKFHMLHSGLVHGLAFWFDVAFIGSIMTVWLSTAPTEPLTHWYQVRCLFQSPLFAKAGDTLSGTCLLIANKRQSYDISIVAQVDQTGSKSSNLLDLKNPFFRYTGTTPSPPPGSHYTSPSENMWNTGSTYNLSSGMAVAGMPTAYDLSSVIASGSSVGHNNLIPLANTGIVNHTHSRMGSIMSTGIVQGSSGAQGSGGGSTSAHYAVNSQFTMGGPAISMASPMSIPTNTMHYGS
Procedure: as §1

[3] = read-out: IC50 (μM) PRMT6, 5 μM GST-GAR, 1 μM 3H-SAM
[4] = read-out: IC50 PRMT6 (Figure 5 heatmap)
[5] = read-out: IC50 (μM) PRMT3, 5 μM histone H4, 1 μM 3H-SAM
[6] = read-out: IC50 PRMT3 (Figure 5 heatmap)
[7] = read-out: IC50 (μM) PRMT8, 5 μM histone H4, 1 μM 3H-SAM
[8] = read-out: IC50 PRMT8 (Figure 5 heatmap)
[9] = SPR, immobilized PRMT4, read-out: kon
[10] = supplementary csv, read-out: SPR KON for PRMT4
[11] = read-out: IC50 (μM) PRMT4, 5 μM histone H3, 1 μM 3H-SAM
[12] = read-out: IC50 PRMT4 (Figure 5 heatmap)

PRMT6, sequence (Q96LA8 2-375): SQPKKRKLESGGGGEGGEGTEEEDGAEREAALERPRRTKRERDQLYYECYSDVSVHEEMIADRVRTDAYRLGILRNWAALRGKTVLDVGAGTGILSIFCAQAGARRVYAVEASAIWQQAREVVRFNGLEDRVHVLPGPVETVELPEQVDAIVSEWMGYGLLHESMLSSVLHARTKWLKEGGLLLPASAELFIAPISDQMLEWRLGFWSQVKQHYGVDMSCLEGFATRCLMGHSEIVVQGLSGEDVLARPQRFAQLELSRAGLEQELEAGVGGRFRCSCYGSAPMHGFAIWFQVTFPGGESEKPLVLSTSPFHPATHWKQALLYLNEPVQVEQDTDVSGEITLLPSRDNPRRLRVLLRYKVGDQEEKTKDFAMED
PRMT3, sequence (O60678 2-531): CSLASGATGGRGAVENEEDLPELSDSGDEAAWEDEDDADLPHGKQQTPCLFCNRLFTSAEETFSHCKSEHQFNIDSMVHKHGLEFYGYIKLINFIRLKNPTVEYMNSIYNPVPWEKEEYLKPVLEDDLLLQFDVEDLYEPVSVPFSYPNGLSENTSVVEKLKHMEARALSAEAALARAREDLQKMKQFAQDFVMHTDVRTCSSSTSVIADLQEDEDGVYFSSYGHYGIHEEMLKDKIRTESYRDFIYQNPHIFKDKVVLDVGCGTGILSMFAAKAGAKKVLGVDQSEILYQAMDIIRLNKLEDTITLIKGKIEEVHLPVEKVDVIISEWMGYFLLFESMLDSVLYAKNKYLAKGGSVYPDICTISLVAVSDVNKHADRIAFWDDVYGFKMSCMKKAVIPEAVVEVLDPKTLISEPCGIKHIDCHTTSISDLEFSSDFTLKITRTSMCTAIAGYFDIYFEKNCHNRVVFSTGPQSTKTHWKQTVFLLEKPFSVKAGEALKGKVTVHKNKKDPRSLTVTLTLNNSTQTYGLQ
ΔN(1–60)-PRMT8, sequence (Q9NR22 61-394, stated change not applied): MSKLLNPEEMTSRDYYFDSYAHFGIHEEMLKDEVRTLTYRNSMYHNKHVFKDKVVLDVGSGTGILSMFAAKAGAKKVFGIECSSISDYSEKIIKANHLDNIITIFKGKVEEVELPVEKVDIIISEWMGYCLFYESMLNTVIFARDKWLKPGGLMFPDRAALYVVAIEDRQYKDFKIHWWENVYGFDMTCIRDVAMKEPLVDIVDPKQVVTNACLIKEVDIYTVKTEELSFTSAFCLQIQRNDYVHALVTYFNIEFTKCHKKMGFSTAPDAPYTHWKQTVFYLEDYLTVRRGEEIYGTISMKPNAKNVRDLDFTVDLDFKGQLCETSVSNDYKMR
PRMT5/MEP50 complex, sequence (O14744 2-637): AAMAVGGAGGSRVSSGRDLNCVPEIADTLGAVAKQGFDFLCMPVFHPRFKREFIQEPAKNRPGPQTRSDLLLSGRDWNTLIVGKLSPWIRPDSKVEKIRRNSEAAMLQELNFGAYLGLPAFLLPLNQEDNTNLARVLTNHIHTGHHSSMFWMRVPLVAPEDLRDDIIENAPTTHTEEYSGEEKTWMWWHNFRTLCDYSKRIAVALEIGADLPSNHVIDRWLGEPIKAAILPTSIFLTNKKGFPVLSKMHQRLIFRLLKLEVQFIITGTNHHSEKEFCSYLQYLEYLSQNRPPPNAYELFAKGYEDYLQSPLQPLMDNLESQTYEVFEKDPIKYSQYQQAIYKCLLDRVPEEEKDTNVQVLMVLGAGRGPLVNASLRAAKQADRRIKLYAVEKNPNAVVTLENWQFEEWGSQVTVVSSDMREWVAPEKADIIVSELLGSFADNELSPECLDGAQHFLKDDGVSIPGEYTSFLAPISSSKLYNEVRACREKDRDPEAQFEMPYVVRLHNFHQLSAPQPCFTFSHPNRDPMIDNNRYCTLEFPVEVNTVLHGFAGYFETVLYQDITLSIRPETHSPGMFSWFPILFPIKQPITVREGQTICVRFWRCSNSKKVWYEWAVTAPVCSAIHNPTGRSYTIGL
PRMT5/MEP50 complex, sequence (Q9BQA1 2-342 partner limits assumed): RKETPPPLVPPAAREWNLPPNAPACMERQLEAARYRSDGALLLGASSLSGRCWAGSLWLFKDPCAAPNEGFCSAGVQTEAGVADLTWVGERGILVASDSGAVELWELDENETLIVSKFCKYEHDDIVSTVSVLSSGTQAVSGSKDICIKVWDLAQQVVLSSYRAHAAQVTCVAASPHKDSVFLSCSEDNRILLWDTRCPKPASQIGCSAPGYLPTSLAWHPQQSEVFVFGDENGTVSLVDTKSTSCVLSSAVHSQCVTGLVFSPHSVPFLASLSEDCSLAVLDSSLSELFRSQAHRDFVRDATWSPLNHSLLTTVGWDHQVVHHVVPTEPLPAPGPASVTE

Papp at 24 h, 0.2 mM [1] [×10⁻⁶ cm/s]	IC50 (PRMT6; [3]) [µM]	IC50 (PRMT6; [4]) [µM]	IC50 (PRMT5/MEP50 complex) [µM]	IC50 (PRMT3; [5]) [µM]	IC50 (PRMT3; [6]) [µM]	IC50 (ΔN(1–60)-PRMT8; [7]) [µM]	IC50 (ΔN(1–60)-PRMT8; [8]) [µM]	koff ([2]; SPR, immobilized PRMT4) [s⁻¹]	kon [2, 9] [M⁻¹ s⁻¹]	τR [2] [s]	SPR tR for PRMT4 ([2]; supplementary csv) [s]	kon [2, 10] [M⁻¹ s⁻¹]	LE (PRMT4)	selectivity index for PRMT4 vs other PRMTs: PRMT1 (PRMT4)	selectivity index for PRMT4 vs other PRMTs: PRMT3 (PRMT4)	selectivity index for PRMT4 vs other PRMTs: PRMT5 (PRMT4)	selectivity index for PRMT4 vs other PRMTs: PRMT6 (PRMT4)	selectivity index for PRMT4 vs other PRMTs: PRMT7 (PRMT4)	selectivity index for PRMT4 vs other PRMTs: PRMT8 (PRMT4)	Structure (SMILES)	other results
0.039	4.34	4.34	0.778	13.3	13.2	1.41	1.41	0.013	250000	76.9	76.9	247000	0.24	214	1583	93	517	557	168	COC(=O)c1cc(O)c2cc(NC(=O)NCCCCNC(=N)NCCC[C@H]3O[C@@H](n4cnc5c(N)ncnc54)[C@H](O)[C@@H]3O)ccc2c1 [12g, Methyl 6-(3-(4-(3-(3-((2R,3S,4R,5R)-5-(6-Amino-9H-purin-9-yl)-3,4-dihydroxytetrahydrofuran-2-yl)propyl)guanidino)butyl)ureido)-4-hydroxy-2-naphthoate]	Kd ([2]; SPR, immobilized PRMT4, 25 °C, KD from ratio koff/kon): 51.7 nM; IC50 (PRMT4; [11]): 0.0084 µM; IC50 (PRMT4; [12]): 0.008 µM; SI PRMT1 (Figure 5 heatmap) (PRMT4): 214 fold; SI PRMT3 (Figure 5 heatmap) (PRMT4): 1,583 fold; SI PRMT5 (Figure 5 heatmap) (PRMT4; selectivity index for PRMT4 over PRMT5): 93 fold; SI PRMT6 (Figure 5 heatmap) (PRMT4): 517 fold; SI PRMT7 (Figure 5 heatmap) (PRMT4): 557 fold; SI PRMT8 (Figure 5 heatmap) (PRMT4): 168 fold
0.055	22.7	22.7	0.115	10.5	10.5	6	6	0.068	2.7e+06	14.7	14.7	2.7e+06	0.24	501	1082	12	2340	23	619	COC(=O)c1cc(O)c2cc(NC(=O)NCCCCNC(=N)NCC[C@H]3O[C@@H](n4cnc5c(N)ncnc54)[C@H](O)[C@@H]3O)ccc2c1 [12f, Methyl 6-(3-(4-(3-(2-((2R,3S,4R,5R)-5-(6-Amino-9H-purin-9-yl)-3,4-dihydroxytetrahydrofuran-2-yl)ethyl)guanidino)butyl)ureido)-4-hydroxy-2-naphthoate]	Kd [2]: 25.2 nM; IC50 (PRMT4; [11]): 0.0097 µM; IC50 (PRMT4; [12]): 0.01 µM; SI PRMT1 (Figure 5 heatmap) (PRMT4): 501 fold; SI PRMT3 (Figure 5 heatmap) (PRMT4): 1,082 fold; SI PRMT6 (Figure 5 heatmap) (PRMT4): 2,340 fold; SI PRMT7 (Figure 5 heatmap) (PRMT4): 23 fold; SI PRMT8 (Figure 5 heatmap) (PRMT4): 619 fold
